From patent publication EP4389751A1, “HETEROCYCLIC COMPOUNDS AND USES THEREOF” (Kumquat Biosciences Inc., priority 2021, dated 2024)
pIC50: −log10 of the molar value. Where two headings read alike, the source gives them in different places.

What was measured:
K-Ras G12S = target: T1, K-Ras G12S (Homo sapiens, UniProt P01116, G12S); assay: HTRF assay of the K-Ras / SOS1 interaction; type: biochemical; conditions: IC50 (against K-Ras G12D) to IC50 (against K-Ras G12S)
T1 construct: made in house; host or cells: E. coli (e.g., BL21 (DE3))
Method in brief: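 GST-K-Ras G12S with anti-GST-Eu donor and His-hSOS1 with anti-6His-XL665 acceptor in ~5 mM HEPES pH 7.4, ~150 mM NaCl, 1 mM DTT, 0.05% BSA, 0.0025% Igepal. Read after ~10 min or longer; IC50 from 665/620 nm ratio, duplicates at 10 µM down to 0.01 µM.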

GP2D cells = assay: Cell proliferation assay (CellTiter-Glo), K-Ras G12D cells; type: cell-based; conditions: read-out: Inhibition of GP2D Cells (IC50)
Method in brief: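 GP2D (K-Ras G12D) cells seeded in DMEM with 2 mM glutamine and 10% FBS, then dosed next day with a dilution series (e.g., 9-point 3-fold). Viability read by CellTiter-Glo luminescence after about 5 days. IC50 from four-parameter fit.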

T1 sequence (P01116 1-188 isoform P01116-2 G12S): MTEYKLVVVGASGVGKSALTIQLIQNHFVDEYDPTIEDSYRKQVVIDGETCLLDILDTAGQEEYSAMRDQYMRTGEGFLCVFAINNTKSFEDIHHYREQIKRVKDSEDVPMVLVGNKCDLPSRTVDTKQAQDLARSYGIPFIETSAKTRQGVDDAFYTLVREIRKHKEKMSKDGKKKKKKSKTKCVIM

Structure (SMILES)	Ratio of IC50 KRAS G12D vs. IC50 KRAS G12S (K-Ras G12S)	pIC50 (GP2D cells; GP2D cells (K-Ras G12D))	pIC50 (GP2D cells; GP2d)
Cc1cnn(C(=O)N2CCN(c3nc(OC[C@@]45CCCN4C[C@H](F)C5)nc4c(F)c(-c5ccc(F)c6sc(N)nc56)c(Cl)cc34)CC2)c1 [Compound A149, (4-(7-(2-amino-7-fluorobenzo[d]thiazol-4-yl)-6-chloro-8-fluoro-2-(((2R,7aS)-2-fluorotetrahydro-1H-pyrrolizin-7a(5H)-yl)methoxy)quinazolin-4-yl)piperazin-1-yl)(4-methyl-1H-pyrazol-1-yl)methanone]	A (A: indicates that the ratio of IC50 against KrasG12D vs. IC50 against KrasG12S is 1-fold or greater)	5.00 to 6.00	–
Nc1nc2c(-c3c(Cl)cc4c(N5CC6CCC(C5)N6C(=O)Nc5ncccn5)nc(OC[C@@]56CCCN5C[C@H](F)C6)nc4c3F)ccc(F)c2s1 [Compound A274, 3-(7-(2-amino-7-fluorobenzo[d]thiazol-4-yl)-6-chloro-8-fluoro-2-(((2R,7aS)-2-fluorotetrahydro-1H-pyrrolizin-7a(5H)-yl)methoxy)quinazolin-4-yl)-N-(pyrimidin-2-yl)-3,8-diazabicyclo[3.2. 1]octane-8-carboxamide]	A (A: indicates that the ratio of IC50 against KrasG12D vs. IC50 against KrasG12S is 1-fold or greater)	≥ 6.00	–
Nc1nc2c(-c3c(Cl)cc4c(NC5CC6(C5)CN(C(=O)n5cncn5)C6)nc(OC[C@@]56CCCN5C[C@H](F)C6)nc4c3F)ccc(F)c2s1 [Compound A211, (6-((7-(2-amino-7-fluorobenzo[d]thiazol-4-yl)-6-chloro-8-fluoro-2-(((2R,7aS)-2-fluorotetrahydro-1H-pyrrolizin-7a(5H)-yl)methoxy)quinazolin-4-yl)amino)-2-azaspiro[3.3]heptan-2-yl)(1H-1,2,4-triazol-1-yl)methanone]	A (A: indicates that the ratio of IC50 against KrasG12D vs. IC50 against KrasG12S is 1-fold or greater)	5.00 to 6.00	–
N#Cc1c(N)sc2c(F)ccc(-c3ncc4c(N5CC6CCC(C5)N6C(=O)n5cncn5)nc(OC[C@@]56CCCN5C[C@H](F)C6)nc4c3F)c12 [Compound A206, 4-(4-(8-(1H-1,2,4-triazole-1-carbonyl)-3,8-diazabicyclo[3.2.1]octan-3-yl)-8-fluoro-2-(((2R,7aS)-2-fluorotetrahydro-1H-pyrrolizin-7a(5H)-yl)methoxy)pyrido[4,3-d]pyrimidin-7-yl)-2-amino-7-fluorobenzo[b]thiophene-3-carbonitrile]	A (A: indicates that the ratio of IC50 against KrasG12D vs. IC50 against KrasG12S is 1-fold or greater)	≥ 6.00	–
Nc1nc2c(-c3c(Cl)cc4c(NC5CCN(C(=O)n6ccc(F)n6)CC5)nc(OC[C@@]56CCCN5C[C@H](F)C6)nc4c3F)ccc(F)c2s1 [Compound A222, (4-((7-(2-amino-7-fluorobenzo[d]thiazol-4-yl)-6-chloro-8-fluoro-2-(((2R,7aS)-2-fluorotetrahydro-1H-pyrrolizin-7a(5H)-yl)methoxy)quinazolin-4-yl)amino)piperidin-1-yl)(3-fluoro-1H-pyrazol-1-yl)methanone]	A (A: indicates that the ratio of IC50 against KrasG12D vs. IC50 against KrasG12S is 1-fold or greater)	5.00 to 6.00	–
Nc1nc2c(-c3c(Cl)cc4c(N5C6COCC5CN(C(=O)n5cncn5)C6)nc(OC[C@@]56CCCN5C[C@H](F)C6)nc4c3F)ccc(F)c2s1 [Compound A270, (9-(7-(2-amino-7-fluorobenzo[d]thiazol-4-yl)-6-chloro-8-fluoro-2-(((2R,7aS)-2-fluorotetrahydro-1H-pyrrolizin-7a(5H)-yl)methoxy)quinazolin-4-yl)-3-oxa-7,9-diazabicyclo[3.3.1]nonan-7-yl)(1H-1,2,4-triazol-1-yl)methanone]	A (A: indicates that the ratio of IC50 against KrasG12D vs. IC50 against KrasG12S is 1-fold or greater)	–	≥ 6.00
